Test system: cultured human gingival tissues
Type: in vitro ADME
Conditions: as excipient in naloxone ODF
Procedure: Each ODF sample was die-cut into 1 inch (2.54 cm) diameter discs (area, 5.067 cm^2). To simulate the oral mucosa, an in vitro oral mucosa 3D model produced from primary human gingival keratinocytes was used (SkinAxis, LLC, North Brunswick, N.J., USA). Briefly, the cultured human gingival tissues were incubated in 6-well plates at 37° C. in a CO2 incubator. To prepare the receiver fluid, 0.3 mL of prewarmed phosphate buffered solution at pH 6.8 was pipetted into each well. Next, 0.5 mL of donor solution or the die-cut discs were placed onto the tissues. The plates were returned to the incubator for 15 minutes. The tissues were moved to the next wells and the receiver media was collected. This was repeated for the remaining time points. The receiver media was analyzed by HPLC in a 5 μm, 4.6×50 mm KINETEX C18 column (Phenomenex, Inc., Torrance, Calif., USA) using art standard protocols. Briefly, the mobile phase comprised 50 mM NH4Ac/Acetonitrile at 88/22. The flow rate was 1.0 mL/min and the column temperature was about 40° C. with a UV of 220 nm and a retention time of 1.8 min.

CCCCCCCC/C=C\CCCCCCCCO [oleyl alcohol, Oleyl alcohol]
effect of permeation enhancer on permeation percentage of the naloxone: increased the permeation percentage of the naloxone

Source: patent publication US20180228728A1, “DOSAGE FORM FOR ADMINISTRATION OF OPIOID ANTAGONISTS” (priority 2017, published 2018)
